Experimental data reported in US10954214B2 (Janssen Pharmaceutica NV, priority 2016, dated 2021).

Key:
[1] = target: full-length MALT1 protein (Strep-MALT1(1-824)-His) (Homo sapiens (Human), UniProt Q9UDY8); assay: MALT1 Biochemical Protease Assay (Ac-LRSR-AMC substrate); details: 10 nM FL MALT1, 200 μM Ac-LRSR-AMC, 4 h at RT; read-out: MALT1_Biochemical activity (Ac-LRSR-amc) IC50
In short: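 Full-length MALT1 pre-incubated with compounds (30 μM to 0.5 nM, 11 threefold steps) for 50 min at RT. After Ac-LRSR-AMC was added, the reaction ran 4 h at RT and AMC fluorescence was read. IC50 and Hill slope from curve fitting against no-enzyme and no-compound controls.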

[2] = system: IL6 secretion by OCI-LY3 ABC-DLBCL cells; assay: Human IL6 Mesoscale assay (OCI-LY3); type: cell-based; details: Homo sapiens, 24 h
In short: (§1)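 Compounds tested from 15 μM to 58.6 nM (twofold, 9 concentrations) on 100,000 cells per well over 24 h at 37° C, without beta-mercaptoethanol. Secreted cytokine in supernatant detected by MSD electrochemiluminescence; scaling used DMSO as maximum and RN486 as full inhibition.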

[3] = system: IL10 secretion by OCI-LY3 ABC-DLBCL cells; assay: Human IL10 Mesoscale assay (OCI-LY3); type: cell-based; details: Homo sapiens, 24 h
In short: as §1

Chain of full-length MALT1 protein (Strep-MALT1(1-824)-His) (Q9UDY8 whole entry): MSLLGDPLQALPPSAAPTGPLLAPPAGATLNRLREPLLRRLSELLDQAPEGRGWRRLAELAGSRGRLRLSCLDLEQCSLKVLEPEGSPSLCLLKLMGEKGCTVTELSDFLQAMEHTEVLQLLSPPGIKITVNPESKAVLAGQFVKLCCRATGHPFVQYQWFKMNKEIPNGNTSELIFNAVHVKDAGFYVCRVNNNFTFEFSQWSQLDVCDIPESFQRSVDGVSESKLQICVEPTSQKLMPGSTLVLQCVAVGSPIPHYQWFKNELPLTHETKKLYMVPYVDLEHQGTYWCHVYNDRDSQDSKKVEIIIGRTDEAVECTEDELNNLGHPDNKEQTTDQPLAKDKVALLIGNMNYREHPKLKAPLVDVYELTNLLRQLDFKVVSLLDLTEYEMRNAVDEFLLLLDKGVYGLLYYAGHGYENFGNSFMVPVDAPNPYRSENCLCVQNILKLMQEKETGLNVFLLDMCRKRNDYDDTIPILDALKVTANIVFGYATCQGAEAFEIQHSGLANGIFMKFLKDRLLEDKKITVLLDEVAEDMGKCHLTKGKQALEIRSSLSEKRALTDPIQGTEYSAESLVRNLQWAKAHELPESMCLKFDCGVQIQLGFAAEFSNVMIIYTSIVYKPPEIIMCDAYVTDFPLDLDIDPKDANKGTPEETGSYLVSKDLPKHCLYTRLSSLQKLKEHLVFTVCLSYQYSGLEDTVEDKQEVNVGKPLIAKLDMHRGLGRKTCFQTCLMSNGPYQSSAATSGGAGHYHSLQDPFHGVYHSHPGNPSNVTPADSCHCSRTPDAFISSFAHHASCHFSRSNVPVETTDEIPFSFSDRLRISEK

COc1ccc2c(-n3ncc(C(=O)Nc4cnc(-n5nccn5)c(Cl)c4)c3C(F)(F)F)cccc2n1 [Cpd 420, N-(5-chloro-6-(2H-1,2,3-triazol-2-yl)pyridin-3-yl)-1-(2-methoxyquinolin-5-yl)-5-(trifluoromethyl)-1H-pyrazole-4-carboxamide]
IC50 [1]: 10 nM | IC50 [2]: 447 nM | IC50 [3]: 339 nM

Cc1nc(-n2nccn2)c(Cl)cc1NC(=O)c1cnn(-c2cnc(N3CC(O)C3)c3sccc23)c1C(F)(F)F [Cpd 433, N-(5-chloro-2-methyl-6-(2H-1,2,3-triazol-2-yl)pyridin-3-yl)-1-(7-(3-hydroxyazetidin-1-yl)thieno[2,3-c]pyridin-4-yl)-5-(trifluoromethyl)-1H-pyrazole-4-carboxamide]
IC50 [1]: 170 nM | IC50 [2]: 589 nM | IC50 [3]: 427 nM

Cn1cc(-n2ncc(C(=O)Nc3cnc(-n4nccn4)c(Cl)c3)c2C(F)(F)F)c2ccccc2c1=O [Cpd 423, N-(5-chloro-6-(2H-1,2,3-triazol-2-yl)pyridin-3-yl)-1-(2-methyl-1-oxo-1,2-dihydroisoquinolin-4-yl)-5-(trifluoromethyl)-1H-pyrazole-4-carboxamide]
IC50 [1]: 54 nM | IC50 [2]: 123 nM | IC50 [3]: 44 nM

Nc1ccc2c(-n3ncc(C(=O)Nc4cnc(-n5nccn5)c(Cl)c4)c3C(F)(F)F)cccc2n1 [Cpd 331, 1-(2-aminoquinolin-5-yl)-N-(5-chloro-6-(2H-1,2,3-triazol-2-yl)pyridin-3-yl)-5-(trifluoromethyl)-1H-pyrazole-4-carboxamide]
IC50 [1]: 501 nM | IC50 [2]: 309 nM | IC50 [3]: 339 nM

Cc1nc(-n2nccn2)c(Cl)cc1NC(=O)c1cnn(-c2ccc(C)n3nccc23)c1C(F)(F)F [Cpd 318, N-(5-chloro-2-methyl-6-(2H-1,2,3-triazol-2-yl)pyridin-3-yl)-1-(7-methylpyrazolo[1,5-a]pyridin-4-yl)-5-(trifluoromethyl)-1H-pyrazole-4-carboxamide]
IC50 [1]: 83 nM | IC50 [2]: 162 nM | IC50 [3]: 138 nM

N#Cc1cc(NC(=O)c2cnn(-c3ncnc4ccccc34)c2C(F)(F)F)cnc1-n1nccn1 [Cpd 296, N-(5-cyano-6-(2H-1,2,3-triazol-2-yl)pyridin-3-yl)-1-(quinazolin-4-yl)-5-(trifluoromethyl)-1H-pyrazole-4-carboxamide]
IC50 [1]: 72 nM | IC50 [2]: 182 nM | IC50 [3]: 69 nM

COc1cc(NC(=O)c2cnn(-c3cccc4c(=O)[nH]ccc34)c2C(F)(F)F)ccn1 [Cpd 360, N-(2-methoxypyridin-4-yl)-1-(1-oxo-1,2-dihydroisoquinolin-5-yl)-5-(trifluoromethyl)-1H-pyrazole-4-carboxamide]
IC50 [1]: 2690 nM | IC50 [2]: 20 nM | IC50 [3]: 20 nM

N#Cc1cc(NC(=O)c2cnn(-c3cccc4nc(F)ccc34)c2C(F)(F)F)cnc1-n1nccn1 [Cpd 291, N-(5-cyano-6-(2H-1,2,3-triazol-2-yl)pyridin-3-yl)-1-(2-fluoroquinolin-5-yl)-5-(trifluoromethyl)-1H-pyrazole-4-carboxamide]
IC50 [1]: 81 nM | IC50 [2]: 110 nM | IC50 [3]: 100 nM

C[C@@H](O)c1ncc(-n2ncc(C(=O)Nc3cnc(-n4nccn4)c(Cl)c3)c2C(F)(F)F)c2ccccc12 (single isomer, unassigned) [Cpd 442, (*R)—N-(5-chloro-6-(2H-1,2,3-triazol-2-yl)pyridin-3-yl)-1-(1-(1-hydroxyethyl)isoquinolin-4-yl)-5-(trifluoromethyl)-1H-pyrazole-4-carboxamide]
IC50 [1]: 62 nM | IC50 [2]: 162 nM | IC50 [3]: 112 nM

N#Cc1cc(NC(=O)c2cnn(-c3cccc4ncnn34)c2C(F)(F)F)cnc1-n1nccn1 [Cpd 274, 1-([1,2,4]triazolo[1,5-a]pyridin-5-yl)-N-(5-cyano-6-(2H-1,2,3-triazol-2-yl)pyridin-3-yl)-5-(trifluoromethyl)-1H-pyrazole-4-carboxamide]
IC50 [1]: 141 nM | IC50 [2]: 2750 nM | IC50 [3]: 3160 nM

O=C(Nc1cnc(-n2nccn2)c(Cl)c1)c1cnn(-c2cnc(N3CC[C@@H](O)C3)c3ccccc23)c1C(F)(F)F [Cpd 427, (R)—N-(5-chloro-6-(2H-1,2,3-triazol-2-yl)pyridin-3-yl)-1-(1-(3-hydroxypyrrolidin-1-yl)isoquinolin-4-yl)-5-(trifluoromethyl)-1H-pyrazole-4-carboxamide]
IC50 [1]: 9 nM | IC50 [2]: 204 nM | IC50 [3]: 158 nM

Cc1nc(-n2cccn2)c(Cl)cc1NC(=O)c1cnn(-c2cnc(N)c3ccccc23)c1C(F)(F)F [Cpd 336, 1-(1-aminoisoquinolin-4-yl)-N-(5-chloro-2-methyl-6-(1H-pyrazol-1-yl)pyridin-3-yl)-5-(trifluoromethyl)-1H-pyrazole-4-carboxamide]
IC50 [1]: 214 nM | IC50 [2]: 209 nM | IC50 [3]: 117 nM

C#Cc1cc(NC(=O)c2cnn(-c3cccc4c(=O)[nH]ccc34)c2C(F)(F)F)c(C)nc1-n1nccn1 [Cpd 190, N-(5-ethynyl-2-methyl-6-(2H-1,2,3-triazol-2-yl)pyridin-3-yl)-1-(1-oxo-1,2-dihydroisoquinolin-5-yl)-5-(trifluoromethyl)-1H-pyrazole-4-carboxamide]
IC50 [1]: 170 nM | IC50 [2]: 186 nM | IC50 [3]: 93 nM

CCOC(C)c1ncc(-n2ncc(C(=O)Nc3cnc(-n4nccn4)c(Cl)c3)c2C(F)(F)F)c2ccccc12 (stereo not drawn) [Cpd 368, N-(5-chloro-6-(2H-1,2,3-triazol-2-yl)pyridin-3-yl)-1-(1-(1-ethoxyethyl)isoquinolin-4-yl)-5-(trifluoromethyl)-1H-pyrazole-4-carboxamide]
IC50 [1]: 331 nM | IC50 [2]: 170 nM | IC50 [3]: 79 nM

Cn1nc(-c2ncc(NC(=O)c3cnn(-c4cccc5ncccc45)c3C(F)(F)F)cc2C#N)cc1C(=O)O [Cpd 255, 3-(3-cyano-5-(1-(quinolin-5-yl)-5-(trifluoromethyl)-1H-pyrazole-4-carboxamido)pyridin-2-yl)-1-methyl-1H-pyrazole-5-carboxylic acid]
IC50 [1]: 275 nM | IC50 [2]: 59 nM | IC50 [3]: 41 nM

O=C(Nc1ccnc(C(F)(F)F)c1)c1cnn(-c2cccn3nccc23)c1C(F)(F)F [Cpd 319, 1-(pyrazolo[1,5-a]pyridin-4-yl)-5-(trifluoromethyl)-N-(2-(trifluoromethyl)pyridin-4-yl)-1H-pyrazole-4-carboxamide]
IC50 [1]: 107 nM | IC50 [2]: 20 nM | IC50 [3]: 18 nM

CNc1ncc(-n2ncc(C(=O)Nc3cnc(-n4nccn4)c(C#N)c3)c2C(F)(F)F)c2cccc(F)c12 [Cpd 325, N-(5-cyano-6-(2H-1,2,3-triazol-2-yl)pyridin-3-yl)-1-(8-fluoro-1-(methylamino)isoquinolin-4-yl)-5-(trifluoromethyl)-1H-pyrazole-4-carboxamide]
IC50 [1]: 55 nM | IC50 [2]: 646 nM | IC50 [3]: 794 nM

O=C(Nc1cnc(-n2nccn2)c(Cl)c1)c1cnn(-c2nsc3ccccc23)c1C(F)(F)F [Cpd 290, 1-(benzo[d]isothiazol-3-yl)-N-(5-chloro-6-(2H-1,2,3-triazol-2-yl)pyridin-3-yl)-5-(trifluoromethyl)-1H-pyrazole-4-carboxamide]
IC50 [1]: 81 nM | IC50 [2]: 186 nM | IC50 [3]: 110 nM

CN(C=O)Cc1ncc(-n2ncc(C(=O)Nc3cnc(-n4nccn4)c(Cl)c3)c2C(F)(F)F)c2ccccc12 [Cpd 373, N-(5-chloro-6-(2H-1,2,3-triazol-2-yl)pyridin-3-yl)-1-(1-((N-methylformamido)methyl)isoquinolin-4-yl)-5-(trifluoromethyl)-1H-pyrazole-4-carboxamide]
IC50 [1]: 138 nM | IC50 [2]: 17 nM | IC50 [3]: 12 nM

N#Cc1cc(NC(=O)c2cnn(-c3cnc(N)c4ccccc34)c2C(F)(F)F)ccn1 [Cpd 340, 1-(1-aminoisoquinolin-4-yl)-N-(2-cyanopyridin-4-yl)-5-(trifluoromethyl)-1H-pyrazole-4-carboxamide]
IC50 [1]: 209 nM | IC50 [2]: 295 nM | IC50 [3]: 229 nM

O=C(Nc1cnc(-n2nccn2)c(Cl)c1)c1cnn(-c2ccc3nccn3n2)c1C(F)(F)F [Cpd 242, N-(5-chloro-6-(2H-1,2,3-triazol-2-yl)pyridin-3-yl)-1-(imidazo[1,2-b]pyridazin-6-yl)-5-(trifluoromethyl)-1H-pyrazole-4-carboxamide]
IC50 [1]: 437 nM | IC50 [2]: 65 nM | IC50 [3]: 54 nM

O=C(Nc1cnc(-n2nccn2)c(Cl)c1)c1cnn(-c2cccc3cncn23)c1C(F)(F)F [Cpd 233, N-(5-chloro-6-(2H-1,2,3-triazol-2-yl)pyridin-3-yl)-1-(imidazo[1,5-a]pyridin-5-yl)-5-(trifluoromethyl)-1H-pyrazole-4-carboxamide]
IC50 [1]: 871 nM | IC50 [2]: 331 nM | IC50 [3]: 240 nM

NCc1cnn(-c2ncc(NC(=O)c3cnn(-c4cccc5ncccc45)c3C(F)(F)F)cc2Cl)n1 [Cpd 272, N-(6-(4-(aminomethyl)-2H-1,2,3-triazol-2-yl)-5-chloropyridin-3-yl)-1-(quinolin-5-yl)-5-(trifluoromethyl)-1H-pyrazole-4-carboxamide]
IC50 [1]: 145 nM | IC50 [2]: 126 nM | IC50 [3]: 87 nM

O=C(Nc1cc(Cl)c(-n2nccn2)cc1F)c1cnn(-c2cccc3nnsc23)c1C(F)(F)F [Cpd 301, 1-(benzo[d][1,2,3]thiadiazol-7-yl)-N-(5-chloro-2-fluoro-4-(2H-1,2,3-triazol-2-yl)phenyl)-5-(trifluoromethyl)-1H-pyrazole-4-carboxamide]
IC50 [1]: 141 nM | IC50 [2]: 501 nM | IC50 [3]: 417 nM
